Reference: US20190124918A1, “BIOFILM FORMATION INHIBITOR AND BIOFILM FORMATION INHIBITING COMPOSITION” (KAO CORPORATION, priority 2016, published 2019)

Key:
[1] = system: Pseudomonas PAO1 strain (ATCC 15692); experiment: Amount of biofilm formed (crystal violet, OD570), 96-well microplate culture; type: cell-based; settings: for inhibition at 101 ppm: final concentration 101 ppm
Procedure: Pseudomonas PAO1 strain (ATCC 15692) was subjected to stationary culture performed in LB culture medium (Lysogeny Broth; manufactured by Becton Dickinson) at 37° C. for 24 hours. The turbidity (OD600) of the culture solution was measured. The culture solution was diluted with Mueller Hinton Broth (BBL made) to prepare a suspension (15 mL) having a turbidity (OD600) of 1/10^6. […]
(§1) Growth inhibition rates relative to the control (ethanol alone) were calculated based on OD600 values measured and in accordance with the following expression. In addition, biofilm (BF) formation inhibition rates relative to the control (ethanol alone) were calculated based on OD570 values and in accordance with the following expression:
BF inhibition (%)={1−(compound addition group OD570/control group OD570)}×100
(§2) As a control, an ethanol solvent alone was used (EtOH control). The concentrations of test compounds in the ethanol solution were as follows: test compound 1: 20 mM, test compounds 2 to 7: 100 mM. To each of the wells of a 96-well microplate (351172; manufactured by Japan Becton Dickinson), 6 μL of DMSO (Tokyo Kasei) and an ethanol solution of each test compound (1 to 8 μL) were added and then the microplates were allowed to stand still at room temperature for 5 hours to evaporate ethanol. A suspension solution of a Pseudomonas microbe prepared in the same procedure as in Test Example 1, 1) was added in an amount of 145 μL per well and culture was initiated.
(§3) After the 96-well microplate was subjected to stationary culture at 30° C. for 24 hours, turbidity (OD600) was measured to check growth. Subsequently, individual wells were stained with 0.1% crystal violet and thoroughly washed twice with physiological saline. To each well, 200 μL of ethanol was added and the absorbance (OD570) was measured to obtain the amount of the biofilm formed. The growth inhibition rate and biofilm (BF) formation inhibition rate were calculated based on OD600 and OD570 values measured and in accordance with the expressions used in Test Example 2.

[2] = system: Pseudomonas PAO1 strain (ATCC 15692); experiment: Growth of test microbe (turbidity OD600), 96-well microplate culture; type: cell-based; settings: for inhibition at 101 ppm: final concentration 101 ppm
Procedure: Pseudomonas PAO1 strain (ATCC 15692) was subjected to stationary culture performed in LB culture medium (Lysogeny Broth; manufactured by Becton Dickinson) at 37° C. for 24 hours. The turbidity (OD600) of the culture solution was measured. The culture solution was diluted with Mueller Hinton Broth (BBL made) to prepare a suspension (15 mL) having a turbidity (OD600) of 1/10^6.
To each of the wells of a 96-well microplate (351172; manufactured by Japan Becton Dickinson), 6 μL of DMSO (Tokyo Chemical Industry Co. Ltd) and an ethanol solution (1 μL, 3 μL or 5 μL) of a test compound were added. After that, the microplate was allowed to stand still at room temperature for 5 hours to evaporate ethanol. The suspension of Pseudomonas microbe prepared in the above step 1) was added in an amount of 145 μL per well and culture was initiated. As the test compound, 2-methylhydroquinone (Sigma Aldrich) and p-toluquinone (Tokyo Kasei) were used. As a reference compound, sodium hypochlorite (manufactured by Wako Pure Chemical Industries Ltd.) was used. As a control, an ethanol solvent (EtOH control) alone was used. The concentration of the test compound in the ethanol solution is 1,000 ppm or 10,000 ppm and the final concentration of the test compound in the culture solution was about from 7 to 333 ppm.
After the 96-well microplate was subjected to stationary culture performed at 30° C. for 24 hours, turbidity (OD600) was measured to check growth. Subsequently, individual wells were stained with 0.1% crystal violet and thoroughly washed twice with physiological saline. To each well, 200 μL of ethanol was added and the absorbance (OD570) was measured to obtain the amount of the biofilm formed.
Compounds listed in Table 3 were each added to a test microbe and culture was conducted by the same procedure as in Test Example 1 and the amount of growth (OD600) and the amount of biofilm formed (OD570) were measured. For compounds a, b, c, f, h, i, J and k, 20 mM ethanol solutions were prepared; whereas for compounds d, e, g, 5 mM ethanol solutions were prepared. The solutions were each added to a 96-well microplate in an amount of 1 to 8 μL and evaluation was made. The final concentrations of the individual compounds are described in Table 3.
as §1
Growth inhibition (%)=(1−(compound addition group OD600/control group OD600))×100
as §2, §3

[3] = Test Example 3, final concentration 83 ppm
[4] = Test Example 3, final concentration 165 ppm
[5] = Test Example 3, final concentration 331 ppm
[6] = Test Example 3, final concentration 496 ppm
[7] = Test Example 3, final concentration 579 ppm
[8] = Test Example 3, final concentration 661 ppm
[9] = Pseudomonas, read-out: BF inhibition (%)
[10] = Pseudomonas, read-out: Growth inhibition (%)

## Cc1c(O)cccc1O [Compound 6, 2-Methylresorcinol]
[1]; Pseudomonas, Test Example 3, final concentration 83 ppm, read-out: BF inhibition (%)
  inhibition at 83 ppm: < 0%
[1]; Pseudomonas, Test Example 3, final concentration 165 ppm, read-out: BF inhibition (%)
  inhibition at 165 ppm: < 0%
[1]; Pseudomonas, Test Example 3, final concentration 331 ppm, read-out: BF inhibition (%)
  inhibition at 331 ppm: < 0%
[1]; Pseudomonas, Test Example 3, final concentration 496 ppm, read-out: BF inhibition (%)
  inhibition at 496 ppm: 53%
[1]; Pseudomonas, Test Example 3, final concentration 579 ppm, read-out: BF inhibition (%)
  inhibition at 579 ppm: 52.2%
[1]; Pseudomonas, Test Example 3, final concentration 661 ppm, read-out: BF inhibition (%)
  inhibition at 661 ppm: 56.3%
[2]; Pseudomonas, Test Example 3, final concentration 83 ppm
  inhibition at 83 ppm: < 0%
[2]; Pseudomonas, Test Example 3, final concentration 165 ppm
  inhibition at 165 ppm: 5.2%
[2]; Pseudomonas, Test Example 3, final concentration 331 ppm
  inhibition at 331 ppm: < 0%
[2]; Pseudomonas, Test Example 3, final concentration 496 ppm
  inhibition at 496 ppm: 12.3%
[2]; Pseudomonas, Test Example 3, final concentration 579 ppm
  inhibition at 579 ppm: 20%
[2]; Pseudomonas, Test Example 3, final concentration 661 ppm
  inhibition at 661 ppm: 13.3%

## CCCc1c(O)cccc1O [Compound 4, 2-Propylresorcinol]
[1]; Pseudomonas, Test Example 3, read-out: BF inhibition (%)
  inhibition at 101 ppm: < 0%
[1]; Pseudomonas, Test Example 3, final concentration 203 ppm, read-out: BF inhibition (%)
  inhibition at 203 ppm: < 0%
[1]; Pseudomonas, Test Example 3, final concentration 405 ppm, read-out: BF inhibition (%)
  inhibition at 405 ppm: < 0%
[1]; Pseudomonas, Test Example 3, final concentration 608 ppm, read-out: BF inhibition (%)
  inhibition at 608 ppm: 7.9%
[1]; Pseudomonas, Test Example 3, final concentration 709 ppm, read-out: BF inhibition (%)
  inhibition at 709 ppm: 21.7%
[1]; Pseudomonas, Test Example 3, final concentration 810 ppm, read-out: BF inhibition (%)
  inhibition at 810 ppm: 14.1%
[2]; Pseudomonas, Test Example 3
  inhibition at 101 ppm: < 0%
[2]; Pseudomonas, Test Example 3, final concentration 203 ppm
  inhibition at 203 ppm: 20.5%
[2]; Pseudomonas, Test Example 3, final concentration 405 ppm
  inhibition at 405 ppm: < 0%
[2]; Pseudomonas, Test Example 3, final concentration 608 ppm
  inhibition at 608 ppm: 6.8%
[2]; Pseudomonas, Test Example 3, final concentration 709 ppm
  inhibition at 709 ppm: 16.4%
[2]; Pseudomonas, Test Example 3, final concentration 810 ppm
  inhibition at 810 ppm: < 0%

## CCCCc1cc(O)ccc1O [j, 2-Butylhydroquinone]
[1]; Pseudomonas, final concentration 22 ppm, read-out: BF inhibition (%)
  inhibition at 22 ppm: 16.3%
[1]; Pseudomonas, final concentration 44 ppm, read-out: BF inhibition (%)
  inhibition at 44 ppm: 14.1%
[1]; Pseudomonas, final concentration 89 ppm, read-out: BF inhibition (%)
  inhibition at 89 ppm: 42.1%
[1]; Pseudomonas, final concentration 133 ppm, read-out: BF inhibition (%)
  inhibition at 133 ppm: 57.3%
[1]; Pseudomonas, final concentration 155 ppm, read-out: BF inhibition (%)
  inhibition at 155 ppm: 63.9%
[1]; Pseudomonas, final concentration 177 ppm, read-out: BF inhibition (%)
  inhibition at 177 ppm: 75.4%
[2]; Pseudomonas, final concentration 22 ppm
  inhibition at 22 ppm: 8.5%
[2]; Pseudomonas, final concentration 44 ppm
  inhibition at 44 ppm: < 0%
[2]; Pseudomonas, final concentration 89 ppm
  inhibition at 89 ppm: 0.8%
[2]; Pseudomonas, final concentration 133 ppm
  inhibition at 133 ppm: < 0%
[2]; Pseudomonas, final concentration 155 ppm
  inhibition at 155 ppm: < 0%
[2]; Pseudomonas, final concentration 177 ppm
  inhibition at 177 ppm: < 0%

## Cc1cc(O)cc(O)c1 [Compound 2, 5-Methylresocinol]
[1]; [3]
  BF inhibition (%): — (No growth inhibition or no BF inhibition)
[1]; [4]
  BF inhibition (%): — (No growth inhibition or no BF inhibition)
[1]; [5]
  BF inhibition (%): — (No growth inhibition or no BF inhibition)
[1]; [6]
  BF inhibition (%): 57.5%
[1]; [7]
  BF inhibition (%): 57.7%
[1]; [8]
  BF inhibition (%): 70.2%
[2]; [3]
  Growth inhibition (%): — (No growth inhibition or no BF inhibition)
[2]; [4]
  Growth inhibition (%): 10.4%
[2]; [5]
  Growth inhibition (%): — (No growth inhibition or no BF inhibition)
[2]; [6]
  Growth inhibition (%): — (No growth inhibition or no BF inhibition)
[2]; [7]
  Growth inhibition (%): 17.6%
[2]; [8]
  Growth inhibition (%): — (No growth inhibition or no BF inhibition)

## Oc1ccc(O)c(O)c1 [h, Hydroxyhydroquinone]
[1]; Pseudomonas, final concentration 17 ppm, read-out: BF inhibition (%)
  inhibition at 17 ppm: 78.2%
[1]; Pseudomonas, final concentration 34 ppm, read-out: BF inhibition (%)
  inhibition at 34 ppm: 96.2%
[1]; Pseudomonas, final concentration 67 ppm, read-out: BF inhibition (%)
  inhibition at 67 ppm: 96.1%
[1]; [9]
  inhibition at 101 ppm: 96.3%
[1]; Pseudomonas, final concentration 118 ppm, read-out: BF inhibition (%)
  inhibition at 118 ppm: 96.3%
[1]; Pseudomonas, final concentration 134 ppm, read-out: BF inhibition (%)
  inhibition at 134 ppm: 96.4%
[2]; Pseudomonas, final concentration 17 ppm
  inhibition at 17 ppm: 46.2%
[2]; Pseudomonas, final concentration 34 ppm
  inhibition at 34 ppm: 18%
[2]; Pseudomonas, final concentration 67 ppm
  inhibition at 67 ppm: 7.2%
[2]; Pseudomonas
  inhibition at 101 ppm: 1.7%
[2]; Pseudomonas, final concentration 118 ppm
  inhibition at 118 ppm: 2%
[2]; Pseudomonas, final concentration 134 ppm
  inhibition at 134 ppm: 5.4%

## OCl [Sodium hypochlorite, sodium hypochlorite, reference compound]
[1]; Test Example 1, 7 to 333 ppm
  biofilm formation (in words): inhibited
[1]; final concentration 7 ppm, EtOH control 0.9163
  The amount of the biofilm formed OD570: 0.9918
[1]; final concentration 20 ppm, EtOH control 0.9564
  The amount of the biofilm formed OD570: 0.9042
[1]; final concentration 33 ppm, EtOH control 0.8974
  The amount of the biofilm formed OD570: 0.7879
[1]; final concentration 67 ppm, EtOH control 0.8853
  The amount of the biofilm formed OD570: 0.7277
[1]; final concentration 200 ppm, EtOH control 0.9248
  The amount of the biofilm formed OD570: 0.7579
[1]; final concentration 333 ppm, EtOH control 0.9562
  The amount of the biofilm formed OD570: 0.4967
[2]; Test Example 1, 7 to 333 ppm
  microbial growth (in words): inhibited
[2]; final concentration 7 ppm, EtOH control 0.5913
  Growth OD600: 0.5938
[2]; final concentration 20 ppm, EtOH control 0.6346
  Growth OD600: 0.4966
[2]; final concentration 33 ppm, EtOH control 0.668
  Growth OD600: 0.4445
[2]; final concentration 67 ppm, EtOH control 0.628
  Growth OD600: 0.4585
[2]; final concentration 200 ppm, EtOH control 0.6045
  Growth OD600: 0.3016
[2]; final concentration 333 ppm, EtOH control 0.6088
  Growth OD600: 0.2758

## CCCCCc1cc(O)cc(O)c1 [Compound 3, 5-Pentylresorcinol]
[1]; [9]
  inhibition at 120 ppm: 0.9%
  inhibition at 240 ppm: < 0%
  inhibition at 480 ppm: 50.6%
  inhibition at 720 ppm: 42.3%
  inhibition at 840 ppm: 85%
  inhibition at 960 ppm: 86.1%
[2]; [10]
  inhibition at 120 ppm: 7.7%
  inhibition at 240 ppm: < 0%
  inhibition at 480 ppm: < 0%
  inhibition at 720 ppm: < 0%
  inhibition at 840 ppm: 17%
  inhibition at 960 ppm: 4.9%

## Cc1c(O)ccc(O)c1C [e, 2,3-Dimethylhydroquinone]
[1]; Pseudomonas, final concentration 5 ppm, read-out: BF inhibition (%)
  inhibition at 5 ppm: < 0%
[1]; Pseudomonas, final concentration 9 ppm, read-out: BF inhibition (%)
  inhibition at 9 ppm: < 0%
[1]; Pseudomonas, final concentration 18 ppm, read-out: BF inhibition (%)
  inhibition at 18 ppm: < 0%
[1]; Pseudomonas, final concentration 27 ppm, read-out: BF inhibition (%)
  inhibition at 27 ppm: 2.4%
[1]; Pseudomonas, final concentration 32 ppm, read-out: BF inhibition (%)
  inhibition at 32 ppm: 17.8%
[1]; Pseudomonas, final concentration 37 ppm, read-out: BF inhibition (%)
  inhibition at 37 ppm: 31.1%
[2]; Pseudomonas, final concentration 5 ppm
  inhibition at 5 ppm: < 0%
[2]; Pseudomonas, final concentration 9 ppm
  inhibition at 9 ppm: 13.1%
[2]; Pseudomonas, final concentration 18 ppm
  inhibition at 18 ppm: 0.8%
[2]; Pseudomonas, final concentration 27 ppm
  inhibition at 27 ppm: < 0%
[2]; Pseudomonas, final concentration 32 ppm
  inhibition at 32 ppm: 14%
[2]; Pseudomonas, final concentration 37 ppm
  inhibition at 37 ppm: 5.4%
